The target of one assay is human Fyn (Homo sapiens, UniProt P06241). The assay can be described thus: C2: Fyn kinase assay. The format is biochemical. To be noted: 5 ng human Fyn, 1.0 μM unlabeled ATP, poly(Glu,Tyr) 4:1, 25° C., 10 minutes; for IC50: read-out: C2: Fyn kinase pIC50 (converted). As to the method:
In this assay the Fyn kinase reaction is performed at 25° C. for 10 minutes in a 96-well microtiterplate. The 25 μl reaction volume contains 8 mM MOPS pH 7.0, 20 mM Mg-acetate, 0.2 mM Na2EDTA, 0.5 mM MnCl2, 1.0 μM unlabeled ATP, 0.2 μCi AT^33P, 20 ng poly(Glu,Tyr) 4:1 and 5 ng human Fyn.
The reaction is stopped by adding 5 μl of a 3% phosphoric acid solution. 5 μl of the reaction mixture is then spotted onto a Filtermat A filter (Wallac) and washed 3 times for 5 min. in 75 mM phosphoric acid and 1 time for 5 min. in methanol prior to drying and scintillation counting.

Another assay has as its target human Src (Homo sapiens, UniProt P12931). The assay is described as follows: C1: c-Src filter assay. The format is biochemical. To be noted: 5 ng human Src, 1.0 μM unlabeled ATP, poly(Glu,Tyr) 4:1, 25° C., 10 minutes; read-out: C1: c-SRC filter pIC50 (converted). The method, then:
The in vitro inhibition of c-Src kinase was assessed using the glass-fiber filter technology as described by Davies, S. P. et al., Biochem J. (2000), 351; p. 95-105.
In the glass-fiber filter technology the activity of the kinase is measured using an appropriate substrate that is incubated with the aforementioned kinase protein in the presence of (^33P) radiolabeled ATP. (^33P) Phosporylation of the substrate is subsequently measured as radioactivity bound on a glassfiber-filter.
In an alternative filter based assay the final kinase activity was assessed using a phosphostorage screen instead of scintilation counting.
In this assay the Src kinase reaction is performed at 25° C. for 10 minutes in a 96-well microtiterplate. The 25 μl reaction volume contains 8 mM MOPS pH 7.0, 20 mM Mg-acetate, 0.2 mM Na2EDTA, 0.5 mM MnCl2, 1.0 μM unlabeled ATP, 0.2 μCi AT^33P, 20 ng poly(Glu,Tyr) 4:1 and 5 ng human Src.
The reaction is stopped by adding 5 μl of a 3% phosphoric acid solution. 5 μl of the reaction mixture is then spotted onto a Filtermat A filter (Wallac) and washed 3 times for 5 min. in 75 mM phosphoric acid and 1 time for 5 min. in methanol prior to drying and quantification on the Typhoon (Amersham) using a phosphostorage screen.

A value given as a limit tells only on which side of the number the result lay.

Sequence of human Src (P12931 whole entry): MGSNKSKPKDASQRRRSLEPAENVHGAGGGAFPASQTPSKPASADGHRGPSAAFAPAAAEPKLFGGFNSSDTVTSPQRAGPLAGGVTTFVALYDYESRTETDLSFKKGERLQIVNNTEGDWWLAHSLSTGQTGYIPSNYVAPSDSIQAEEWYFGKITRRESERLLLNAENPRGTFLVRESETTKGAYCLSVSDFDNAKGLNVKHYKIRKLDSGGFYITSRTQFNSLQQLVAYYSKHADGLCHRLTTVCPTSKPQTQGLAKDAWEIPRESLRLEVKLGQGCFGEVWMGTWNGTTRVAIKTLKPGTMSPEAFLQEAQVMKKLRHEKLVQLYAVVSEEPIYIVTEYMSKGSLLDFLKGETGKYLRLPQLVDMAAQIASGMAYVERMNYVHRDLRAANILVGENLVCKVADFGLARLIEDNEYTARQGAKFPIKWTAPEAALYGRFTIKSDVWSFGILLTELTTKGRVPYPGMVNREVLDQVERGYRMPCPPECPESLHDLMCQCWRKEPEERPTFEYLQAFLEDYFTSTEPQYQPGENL
Sequence of human Fyn (P06241 whole entry): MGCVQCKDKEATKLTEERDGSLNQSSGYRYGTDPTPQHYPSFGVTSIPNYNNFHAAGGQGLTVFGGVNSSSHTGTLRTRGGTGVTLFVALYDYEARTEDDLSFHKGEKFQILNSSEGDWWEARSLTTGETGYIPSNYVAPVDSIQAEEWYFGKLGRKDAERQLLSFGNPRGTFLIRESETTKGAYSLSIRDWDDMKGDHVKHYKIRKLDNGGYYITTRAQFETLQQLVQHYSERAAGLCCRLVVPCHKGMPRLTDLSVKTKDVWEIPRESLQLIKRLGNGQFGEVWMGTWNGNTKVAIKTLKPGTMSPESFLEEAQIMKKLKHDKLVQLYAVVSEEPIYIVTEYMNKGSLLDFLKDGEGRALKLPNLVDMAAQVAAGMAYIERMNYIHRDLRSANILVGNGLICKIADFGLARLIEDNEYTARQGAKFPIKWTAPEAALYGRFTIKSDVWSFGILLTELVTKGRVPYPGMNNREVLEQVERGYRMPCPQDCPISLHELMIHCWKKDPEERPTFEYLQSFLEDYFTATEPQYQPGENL

`COc1cc2ncnc3c2cc1OCCCCCN(C(=O)OCc1ccccc1)Cc1ccc2c(c1N3)OCO2` [Compound A8]: the IC50 on human Fyn is 204 nM. As for `COc1cc2ncnc3c2cc1OCCCCCNCc1ccc2c(c1N3)OCO2` [Compound A9], the results for the IC50 on human Src and at human Fyn were 2290 nM and less than 1000 nM, respectively. On to `COc1cc2ncnc3c2cc1OCCCCCNCc1ccc2c(c1N3)OCO2` [Compound A10], for which, at human Src, the IC50 is 2570 nM. On human Fyn, the “C2: Fyn kinase pIC50” value is more than 6. For the compound `COc1cc2ncnc3c2cc1OCCCCCN(C)Cc1ccc2c(c1N3)OCO2` [Compound A11], the IC50 at human Fyn is 18.2 nM. `CN1CCCCCOc2cc3c(ncnc3cc2O)Nc2c(ccc3c2OCO3)C1` [Compound A12]: the IC50 on human Src was more than 10000 nM; at human Fyn it was 34.7 nM. For the compound `COc1cc2ncnc3c2cc1OCCCN(S(=O)(=O)c1ccccc1[N+](=O)[O-])CCN(C)Cc1ccc2c(c1N3)OCO2` [Compound A20], the IC50 at human Src is 186 nM; at human Fyn, 6.92 nM. Take `COc1cc2ncnc3c2cc1OCCCNCCN(C)Cc1ccc2c(c1N3)OCO2` [Compound A22]: the values for the IC50 on human Src and at human Fyn were 3240 nM and 39.8 nM, respectively. In the case of `CN1CCNCCCOc2cc3c(ncnc3cc2O)Nc2c(ccc3c2OCO3)C1` [Compound A23], the IC50 at human Src is more than 10000 nM; at human Fyn it was more than 1000 nM. With `CN1CCN(C(=O)OC(C)(C)C)CCCOc2cc3c(ncnc3cc2O)Nc2c(ccc3c2OCO3)C1` [Compound A24], the IC50 at human Src is more than 10000 nM; on human Fyn, more than 1000 nM. As for `CN1CCN(C(=O)OC(C)(C)C)CCCOc2cc3c(ncnc3cc2OC(=O)OC(C)(C)C)Nc2c(ccc3c2OCO3)C1` [Compound A25], on human Fyn, the IC50 was more than 1000 nM. Turning to `CN1CCN(CCCOc2cc3ncnc4c3cc2OCCCN(C(=O)OC(C)(C)C)CCN(C)Cc2ccc3c(c2N4)OCO3)CC1` [Compound A27], the figures for the IC50 at human Src and on human Fyn were 2240 nM and 22.4 nM, respectively.

With `COCCOCCOc1cc2ncnc3c2cc1OCCCN(C(=O)OC(C)(C)C)CCN(C)Cc1ccc2c(c1N3)OCO2` [Compound A28], the values for the IC50 at human Src and at human Fyn were more than 10000 nM and less than 1000 nM, respectively. As for `CN(CCO)CCCOc1cc2ncnc3c2cc1OCCCN(C(=O)OC(C)(C)C)CCN(C)Cc1ccc2c(c1N3)OCO2` [Compound A29], the IC50 at human Src was 2630 nM; on human Fyn, 43.7 nM.

Consider `COc1cc2ncnc3c2cc1OCCCNC(=O)[C@H](C)N(C)Cc1ccc2c(c1N3)OCO2` [Compound A38], for which the IC50 was 3310 nM on human Src and 245 nM on human Fyn.

For the compound `C[C@H]1C(=O)NCCCOc2cc3c(ncnc3cc2O)Nc2c(ccc3c2OCO3)CN1C` [Compound A40], the results for the IC50 on human Src and at human Fyn were more than 10000 nM and more than 1000 nM, respectively. As for `C[C@H]1C(=O)NCCCOc2cc3c(ncnc3cc2OCCCN2CCOCC2)Nc2c(ccc3c2OCO3)CN1C` [Compound A42], the IC50 at human Fyn is 64.6 nM. On the same count and under the same terms, as for `CN1CCN(C(=O)OC(C)(C)C)CCCOc2cc3c(ncnc3cc2OCCCN2CCC(S(C)(=O)=O)CC2)Nc2c(ccc3c2OCO3)C1` [Compound A54], the figure is 69.2 nM. In the case of `CN1CCCCCOc2cc3c(ncnc3cc2OCCCN)Nc2c(ccc3c2OCO3)C1` [Compound A57], the IC50 on human Src is 933 nM; on human Fyn, 18.2 nM.

Regarding `COc1cc2ncnc3c2cc1OCCCCCN(C(=O)OCc1ccccc1)Cc1cc(Oc2ccc(C)nc2)c2c(c1N3)OCO2` [Compound A68], at human Fyn, the IC50 was more than 1000 nM. For `CN1CCCCCOc2cc3c(ncnc3cc2OC[C@@H](O)CN2CCCCC2)Nc2c(ccc3c2OCO3)C1` [Compound B1], the IC50 at human Src is 537 nM; at human Fyn it was less than 1 nM. For the compound `COCCOc1cc2ncnc3c2cc1OCCCCCN(C)Cc1ccc2c(c1N3)OCO2` [Compound B2], the figures for the IC50 on human Src and on human Fyn were 1100 nM and 7.76 nM, respectively.

For `C[C@H]1C(=O)NCCCOc2cc3c(ncnc3cc2OCCCN2CCOCC2)Nc2c(ccc3c2OCO3)CN1C` [Compound B6], the IC50 at human Fyn is 38 nM. On the same count and under the same terms, then `COCCOCCOc1cc2ncnc3c2cc1OCCCNC(=O)[C@H](C)N(C)Cc1ccc2c(c1N3)OCO2` [Compound B7], with 91.2 nM; and `CN1CCNCCCOc2cc3c(ncnc3cc2OCCCN2CCC(S(C)(=O)=O)CC2)Nc2c(ccc3c2OCO3)C1` [Compound B14], with 19.5 nM; and `Brc1cc2c(c3c1OCO3)Nc1ncnc3cc(OCCCN4CCCC4)c(cc13)OCCCCCNC2` [Compound B27], with less than 1000 nM. Regarding `CN1CCN(CCCOc2cc3ncnc4c3cc2OCCCCCNCc2cc(Br)c3c(c2N4)OCO3)CC1` [Compound B28], the IC50 at human Fyn is less than 1000 nM. In the case of `CCOC(CCOc1cc2ncnc3c2cc1OCCCCCN(C)Cc1ccc2c(c1N3)OCO2)OCC` [Compound B32], the IC50 at human Fyn is 38 nM. For the compound `COCCOc1cc2ncnc3c2cc1OCCCCCNCc1ccc2c(c1N3)OCO2` [Compound B33], the IC50 at human Fyn was 13.2 nM. The same measure, in the same setting: as for `C[C@H]1C(=O)NCCCOc2cc3c(ncnc3cc2OCCCN2CCS(=O)(=O)CC2)Nc2c(ccc3c2OCO3)CN1C` [Compound B36], the figure is 38 nM; as for `COCCNCCCOc1cc2ncnc3c2cc1OCCCNC(=O)[C@H](C)N(C)Cc1ccc2c(c1N3)OCO2` [Compound B38], 138 nM; as for `C[C@H]1C(=O)NCCCOc2cc3c(ncnc3cc2OCCCNCCO)Nc2c(ccc3c2OCO3)CN1C` [Compound B39], 129 nM. On the same count and under the same terms, as for `C[C@H]1C(=O)NCCCOc2cc3c(ncnc3cc2OCCCN(C)CCO)Nc2c(ccc3c2OCO3)CN1C` [Compound B40], the figure is 214 nM; as for `COCCOc1cc2ncnc3c2cc1OCCCNC(=O)[C@H](C)N(C)Cc1ccc2c(c1N3)OCO2` [Compound B41], 81.3 nM. Regarding `C[C@H]1C(=O)NCCCOc2cc3c(ncnc3cc2OC[C@@H]2CO2)Nc2c(ccc3c2OCO3)CN1C` [Compound B42], the IC50 on human Fyn was 282 nM. In the case of `Oc1cc2ncnc3c2cc1OCCCCCNCc1cc(Br)c2c(c1N3)OCO2` [Compound B44], the IC50 on human Fyn was 209 nM. For the compound `CN1CCCCCOc2cc3c(ncnc3cc2O)Nc2c(cc(Br)c3c2OCO3)C1` [Compound B48], the IC50 at human Fyn is 89.1 nM. Regarding `COc1cc2ncnc3c2cc1OCCCCN(C(=O)OCc1ccccc1)CCc1ccc2c(c1N3)OCO2` [Compound B50], the IC50 on human Fyn is more than 1000 nM. Regarding `COc1cc2ncnc3c2cc1OCCCCN(C)CCc1ccc2c(c1N3)OCO2` [Compound B53], at human Fyn, the IC50 is 110 nM. `C[C@H]1C(=O)NCCCOc2cc3c(ncnc3cc2OCCCN2CCN(CCO)CC2)Nc2c(ccc3c2OCO3)CN1C` [Compound B54]: the IC50 at human Fyn was 51.3 nM. As for `C[C@H]1C(=O)NCCCOc2cc3c(ncnc3cc2OCCCN2CCC(CCS(C)(=O)=O)CC2)Nc2c(ccc3c2OCO3)CN1C` [Compound B55], at human Fyn, the IC50 was 115 nM. Still for that read-out and setting: as for `C[C@H]1C(=O)NCCCOc2cc3c(ncnc3cc2OCCCN2CCC(S(C)(=O)=O)CC2)Nc2c(ccc3c2OCO3)CN1C` [Compound B56], the figure is 85.1 nM. Take `C[C@H]1C(=O)NCCCOc2cc3c(ncnc3cc2OCCCN2CCN(C)CC2)Nc2c(ccc3c2OCO3)CN1C` [Compound B57]: the IC50 on human Fyn was 26.3 nM. For `C[C@H]1C(=O)NCCCOc2cc3c(ncnc3cc2OCCCN2CCN(C)CC2)Nc2c(ccc3c2OCO3)CN1C` [Compound B58], at human Fyn, the IC50 was 33.1 nM. Regarding `C[C@H]1C(=O)NCCCOc2cc3c(ncnc3cc2OCCCN2CCN(C(=O)CCS(C)(=O)=O)CC2)Nc2c(ccc3c2OCO3)CN1C` [Compound B59], on human Fyn, the IC50 is 42.7 nM.

Turning to `CC(=O)NCCN1CCN(CCCOc2cc3ncnc4c3cc2OCCCNC(=O)[C@H](C)N(C)Cc2ccc3c(c2N4)OCO3)CC1` [Compound B60], the IC50 at human Fyn was 37.2 nM. As to `C[C@H]1C(=O)NCCCOc2cc3c(ncnc3cc2OC[C@@H](O)CN2CCC(O)CC2)Nc2c(ccc3c2OCO3)CN1C` [Compound B62], on human Fyn, the IC50 is 200 nM.

On to `CN1CCCCCOc2cc3c(ncnc3cc2OCCCN2CCN(CCO)CC2)Nc2c(cc(Br)c3c2OCO3)C1` [Compound B66], for which the IC50 at human Fyn is less than 1000 nM. Regarding `CN(CCO)CCCOc1cc2ncnc3c2cc1OCCCCCN(C)Cc1cc(Br)c2c(c1N3)OCO2` [Compound B72], the IC50 on human Fyn is less than 1000 nM. For `COc1cc2ncnc3c2cc1OCCCNC(=O)[C@H](C)N(C)Cc1cc(Cl)c2c(c1N3)OCO2` [Compound B74], on human Fyn, the IC50 is 69.2 nM.

Regarding `COc1cc2ncnc3c2cc1OCCCN(C)C(=O)[C@H](C)N(C)Cc1cc(Cl)c2c(c1N3)OCO2` [Compound B76], on human Fyn, the IC50 was 316 nM. As for `COc1cc2ncnc3c2cc1OCCCN(C)C(=O)[C@H](C)N(C)Cc1ccc2c(c1N3)OCO2` [Compound B78], the IC50 at human Fyn was more than 1000 nM.

(Values after patent US8492377B2, “MTKI quinazoline derivatives” (Janssen Pharmaceutica NV, priority 2006, dated 2013).)
